Reference: ChEMBL document CHEMBL5579843, “Multimechanism biological profiling of tetrahydro-β-carboline analogues as selective HDAC6 inhibitors for the treatment of Alzheimer's disease” (Eur J Med Chem, 2024)
Activity calls are given as the source filed them. The rule behind the calls is not given here.

Legend:
Danio rerio [1] = species: Danio rerio; test: Cognitive improvement ability in scopolamine induced zebrafish alzheimer disease model assessed as improvement in spatial memory by measuring increase in activity at enriched chamber region at 1 mg/L pretreated with scopolamine for 30 mins followed by compound addition for 3 mins by T-maze test; format: functional, organism-based
PC-12 [2] = test: Neuroprotective activity against H2O2-induced oxidative damage in rat PC-12 cells assessed as reduction in ROS level at 10 uM pretreated for 4 hrs followed by H2O2 stimulation and measured after 24 hrs by DCFH-DA staining based fluorescence microscopic analysis; format: functional, cell-based; conditions: time 28.0 hrs
Histone deacetylase 8 = biological target: T1, Histone deacetylase 8 (Homo sapiens, UniProt Q9BY41); test: Inhibition of HDAC8 (unknown origin)
T1 sequence (Q9BY41 whole entry): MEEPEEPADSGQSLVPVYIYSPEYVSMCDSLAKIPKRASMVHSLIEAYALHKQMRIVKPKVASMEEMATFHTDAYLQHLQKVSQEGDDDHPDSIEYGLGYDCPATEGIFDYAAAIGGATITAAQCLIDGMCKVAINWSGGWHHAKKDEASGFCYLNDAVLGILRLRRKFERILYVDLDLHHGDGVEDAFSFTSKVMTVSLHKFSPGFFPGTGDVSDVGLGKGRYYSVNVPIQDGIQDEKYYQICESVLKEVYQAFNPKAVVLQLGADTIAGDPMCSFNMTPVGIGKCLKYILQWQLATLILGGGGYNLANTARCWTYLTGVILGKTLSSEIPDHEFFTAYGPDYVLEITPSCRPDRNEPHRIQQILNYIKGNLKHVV

PC-12 [3] = test: Induction of neurite outgrowth in rat PC-12 cells assessed as increase in neuronal growth at 10 uM measured after 48 hrs by light microscopic analysis relative to control; format: functional
PC-12 [4] = test: Induction of neurite outgrowth in rat PC-12 cells measured after 48 hrs by light microscopic analysis; format: functional, cell-based; conditions: dose 1-10 µM
PC-12 [5] = test: Inhibition of HDAC6 in rat PC-12 cells assessed as increase in acetylated alpha-tubulin level incubated for 6 hrs by Western blot analysis; format: cell-based; conditions: dose 0.1-10 µM
Danio rerio [6] = species: Danio rerio; test: Effect on anxiety-like behavior in scopolamine induced zebrafish alzheimer disease model assessed as exploratory behavior in upper part of aquarium by measuring increase in swimming speed at 1 mg/L pretreated with scopolamine for 30 mins followed by compound addition for 3 mins by novel tank diving test; format: functional, organism-based
SH-SY5Y = test: Neuroprotective activity against H2O2-induced oxidative damage in human SH-SY5Y cells assessed as increase in cell survival pretreated for 4 hrs followed by 200 uM H2O2 stimulation and measured after 24 hrs by MTT assay; format: functional, cell-based; conditions: dose 1-10 µM, time 28.0 hrs
PC-12 [7] = test: Neuroprotective activity against H2O2-induced oxidative damage in rat PC-12 cells assessed as inhibition of apoptosis by measuring live cells at 10 uM pretreated for 4 hrs followed by H2O2 stimulation and measured after 24 hrs by Annexin V-FITC/PI staining based flow cytometry analysis (reference value: 81.7%); format: functional; design: scale not given: the % may be the effect or the level left; conditions: time 28 hrs
PC-12 [8] = test: Neuroprotective activity against H2O2-induced oxidative damage in rat PC-12 cells assessed as increase in cell survival pretreated for 4 hrs followed by 800 uM H2O2 stimulation and measured after 24 hrs by MTT assay; format: functional, cell-based; conditions: dose 1-10 µM, time 28.0 hrs

With `O=C(NO)c1ccc(CN2CCc3c(n(CC4CC4)c4ccc(F)cc34)C2)cc1` the Activity (Danio rerio [1]) was “Active”, the Activity (PC-12 [2]) was “Active” and the IC50 (Histone deacetylase 8) was 1950 nM. The Activity (PC-12 [3]) was 15.3%, the Activity (PC-12 [4]) was “Dose-Dependent Effect” and the inhibition (PC-12 [5]) was “Dose-Dependent Effect”. For the same molecule, the Activity (Danio rerio [6]) was “Active”, the Activity (SH-SY5Y) was “Dose-Dependent Effect” and the Activity (PC-12 [7]) was 91.5%. The Activity (PC-12 [8]) was “Dose-Dependent Effect”.
